Results reported in article PMC12959773 (Protein & Cell, 2025).
Changes are numbered by the printed parent chain.

Experiments:
SLC7A13-SLC3A1 complex [1] = molecular target: T1, SLC7A13-SLC3A1 complex (Homo sapiens, UniProt Q8TCU3, F224A); test: [2H]-cystine uptake, isotope tracking; assay type: cell-based; details: HEK293 cells transfected with SLC7A13 and SLC3A1; labelled compound
T1 construct: heterodimeric light/heavy chain transporter, dimer of heterodimers; ectopically expressed in HEK293T / HEK293 cells (Expi293 for cryo-EM); with Amino acid transporter heavy chain SLC3A1
T1 sequence (Q8TCU3 1-470 F224A): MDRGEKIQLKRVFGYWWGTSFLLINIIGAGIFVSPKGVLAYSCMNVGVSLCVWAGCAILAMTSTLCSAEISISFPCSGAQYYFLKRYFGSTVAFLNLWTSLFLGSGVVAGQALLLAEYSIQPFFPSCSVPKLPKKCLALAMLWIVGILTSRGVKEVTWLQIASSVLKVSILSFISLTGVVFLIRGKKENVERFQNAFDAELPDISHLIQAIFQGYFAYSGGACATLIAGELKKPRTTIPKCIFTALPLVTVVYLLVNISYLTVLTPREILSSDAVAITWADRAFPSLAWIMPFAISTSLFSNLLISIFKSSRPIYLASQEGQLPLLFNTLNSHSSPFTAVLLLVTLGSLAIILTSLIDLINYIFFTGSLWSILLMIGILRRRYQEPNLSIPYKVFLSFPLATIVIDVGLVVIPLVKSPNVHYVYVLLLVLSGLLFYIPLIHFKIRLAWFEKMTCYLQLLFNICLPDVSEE
T1 sequence (Q07837 1-685 partner): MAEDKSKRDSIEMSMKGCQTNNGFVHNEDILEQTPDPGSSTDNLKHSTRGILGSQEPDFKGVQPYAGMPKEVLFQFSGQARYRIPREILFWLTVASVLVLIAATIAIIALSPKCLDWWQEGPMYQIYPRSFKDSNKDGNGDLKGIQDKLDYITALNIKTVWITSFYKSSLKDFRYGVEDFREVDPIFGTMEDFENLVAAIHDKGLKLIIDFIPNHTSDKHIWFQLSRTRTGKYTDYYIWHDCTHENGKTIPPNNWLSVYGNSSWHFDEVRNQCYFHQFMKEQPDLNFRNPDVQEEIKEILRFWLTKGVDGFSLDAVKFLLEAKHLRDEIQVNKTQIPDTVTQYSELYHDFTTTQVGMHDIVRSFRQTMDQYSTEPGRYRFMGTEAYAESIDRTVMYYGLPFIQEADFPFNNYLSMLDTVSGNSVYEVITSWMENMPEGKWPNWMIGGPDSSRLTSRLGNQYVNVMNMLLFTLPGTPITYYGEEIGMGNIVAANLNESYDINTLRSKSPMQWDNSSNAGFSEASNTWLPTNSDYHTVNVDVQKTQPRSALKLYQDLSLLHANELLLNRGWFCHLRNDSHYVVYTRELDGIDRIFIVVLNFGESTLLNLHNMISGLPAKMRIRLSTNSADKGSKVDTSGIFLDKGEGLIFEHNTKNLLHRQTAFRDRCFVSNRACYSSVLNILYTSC

SLC7A13-SLC3A1 complex [2] = molecular target: T2, SLC7A13-SLC3A1 complex (Homo sapiens, UniProt Q8TCU3, S219A); test: [2H]-cystine uptake, isotope tracking; assay type: cell-based; details: HEK293 cells transfected with SLC7A13 and SLC3A1; labelled compound
T2 construct: heterodimeric light/heavy chain transporter, dimer of heterodimers; ectopically expressed in HEK293T / HEK293 cells (Expi293 for cryo-EM); with Amino acid transporter heavy chain SLC3A1
T2 sequence (Q8TCU3 1-470 S219A): T1 sequence (Q8TCU3 1-470 F224A) with S219A, A224F
T2 sequence (Q07837 1-685 partner): T1 sequence (Q07837 1-685 partner)

SLC7A13-SLC3A1 complex [3] = molecular target: T3, SLC7A13-SLC3A1 complex (Homo sapiens, UniProt Q8TCU3, T225A); test: [2H]-cystine uptake, isotope tracking; assay type: cell-based; details: HEK293 cells transfected with SLC7A13 and SLC3A1; labelled compound
T3 construct: heterodimeric light/heavy chain transporter, dimer of heterodimers; ectopically expressed in HEK293T / HEK293 cells (Expi293 for cryo-EM); with Amino acid transporter heavy chain SLC3A1
T3 sequence (Q8TCU3 1-470 T225A): T1 sequence (Q8TCU3 1-470 F224A) with A224F, T225A
T3 sequence (Q07837 1-685 partner): T1 sequence (Q07837 1-685 partner)

SLC7A9-SLC3A1 complex = molecular target: T4, SLC7A9-SLC3A1 complex (Homo sapiens, UniProt P82251); test: microscale thermophoresis; details: read-out: binding affinity
T4 construct: heterodimeric light/heavy chain transporter, dimer of heterodimers; ectopically expressed in HEK293T cells; with Amino acid transporter heavy chain SLC3A1
T4 sequence (P82251 1-487): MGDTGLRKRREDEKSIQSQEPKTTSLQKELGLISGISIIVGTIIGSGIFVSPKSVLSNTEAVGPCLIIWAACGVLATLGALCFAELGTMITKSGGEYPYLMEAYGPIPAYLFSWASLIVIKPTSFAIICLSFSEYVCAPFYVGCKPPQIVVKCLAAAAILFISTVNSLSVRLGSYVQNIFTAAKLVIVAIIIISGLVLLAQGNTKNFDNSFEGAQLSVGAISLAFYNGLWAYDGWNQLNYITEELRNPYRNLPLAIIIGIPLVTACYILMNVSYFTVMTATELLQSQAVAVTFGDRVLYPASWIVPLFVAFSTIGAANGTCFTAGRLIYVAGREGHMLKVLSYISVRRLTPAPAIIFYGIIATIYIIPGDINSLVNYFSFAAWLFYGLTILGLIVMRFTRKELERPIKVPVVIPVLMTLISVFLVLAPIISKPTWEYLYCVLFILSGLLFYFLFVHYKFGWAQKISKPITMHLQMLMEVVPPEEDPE
T4 sequence (Q07837 1-685 partner): T1 sequence (Q07837 1-685 partner)

## N[C@@H](CSSC[C@H](N)C(=O)O)C(=O)O [cystine]
SLC7A13-SLC3A1 complex [1]
  cystine uptake: mutation in any of the seven SLC7A13-specific residues to alanine significantly reduced SLC7A13’s transporter activities
SLC7A13-SLC3A1 complex [2]
  cystine uptake: mutation in any of the seven SLC7A13-specific residues to alanine significantly reduced SLC7A13’s transporter activities
SLC7A13-SLC3A1 complex [3]
  cystine uptake: mutation in any of the seven SLC7A13-specific residues to alanine significantly reduced SLC7A13’s transporter activities
SLC7A9-SLC3A1 complex
  Kd: 107 ± 33.5 µM
